From PMC7845594, “Novel Immune Modulators Enhance Caenorhabditis elegans Resistance to Multiple Pathogens” (mSphere, 2021)

System: C. elegans transcriptome
Assay: Transcriptome profiling (Affymetrix microarrays), differentially expressed genes
Assay type: in vivo, Caenorhabditis elegans
Settings: downregulated genes
Procedure: To gain additional insight into the effect of LK molecules on C. elegans, young-adult, wild-type worms were treated with each drug at 100 µM for 8 h in the absence of pathogen. RNA was collected, and transcriptome profiling was performed.
Data were determined using Affymetrix microarrays, as described in Materials and Methods. Download Table S3, XLSX file, 0.07 MB.
Transcriptome profiling was performed on ∼6,000 wild-type, young adult worms incubated with either LK molecules or DMSO for 8 h. RNA isolation was performed using TRIzol extraction, followed by cleanup using RNeasy columns according to the manufacturer’s protocol. Each condition was analyzed in triplicate. Microarray data have been deposited in the GEO database, accession number GSE137516. […] Clustering and generation of the heat map was performed using Cluster 3.0 ([98]) and Treeview ([99]), respectively. Fold change of genes were normalized to average fold change of that gene over all clustered conditions. Genes and conditions were clustered using Euclidean distance and average linkages. […] Microarray data for non-LK molecules were collected from GEO omnibus. WormEXP was used as a secondary method for confirming statistical significance of potential pathways stimulated by each of the LK molecules ([100]). Gene ontologies were generated using DAVID ([101], [102]).

## CCN(CC)/N=N/c1ccc(C(=O)O)cc1 [LK35]
Gene C29F4.2, Affy_ID 190884_at
  Fold Change: 0.3931
Gene C32E8.7, Affy_ID 188220_at
  Fold Change: 0.2903
Gene C33F10.9, Affy_ID 172834_x_at
  Fold Change: 0.1897
Gene C34F11.3, Affy_ID 189114_at
  Fold Change: 0.4428
Gene C34F11.4, Affy_ID 172885_x_at
  Fold Change: 0.1632
Gene C34F11.6, Affy_ID 172896_x_at
  Fold Change: 0.1976
Gene C35A5.6, Affy_ID 179396_at
  Fold Change: 0.1353
Gene C35D10.11, Affy_ID 172630_x_at
  Fold Change: 0.1209
Gene C44C8.6, Affy_ID 189233_s_at
  Fold Change: 0.3734
Gene C49F5.1, Affy_ID 174812_at
  Fold Change: 0.237
Gene C50F7.5, Affy_ID 183381_at
  Fold Change: 0.3778
Gene CTEL54X.1, Affy_ID 185910_at
  Fold Change: 0.2757
Gene D1086.2, Affy_ID 177478_at
  Fold Change: 0.1132
Gene D1086.5, Affy_ID 177666_at
  Fold Change: 0.2318
Gene D2024.7, Affy_ID 187178_s_at
  Fold Change: 0.4973
Gene D2045.8, Affy_ID 191879_at
  Fold Change: 0.4257
Gene D2089.3, Affy_ID 178891_at
  Fold Change: 0.3977
Gene F02D8.4, Affy_ID 189325_at
  Fold Change: 0.3853
Gene F07A11.5, Affy_ID 188623_at
  Fold Change: 0.4237
Gene F08B6.4, Affy_ID 171924_x_at
  Fold Change: 0.4112
Gene F08G2.1, Affy_ID 192280_s_at
  Fold Change: 0.181
Gene F53A9.8, Affy_ID 180612_s_at
  Fold Change: 0.2385
Gene F53F4.13, Affy_ID 182491_at
  Fold Change: 0.306
Gene F54F11.2, Affy_ID 191753_at
  Fold Change: 0.2877
Gene F55F3.2, Affy_ID 189534_at
  Fold Change: 0.2425
Gene F55G1.3, Affy_ID 172702_x_at
  Fold Change: 0.3727
Gene F58A4.7, Affy_ID 171841_x_at
  Fold Change: 0.2717
Gene F58A6.8, Affy_ID 172889_x_at
  Fold Change: 0.1742
Gene F58A6.9, Affy_ID 172743_x_at
  Fold Change: 0.2732
Gene F58B3.1, Affy_ID 178236_s_at
  Fold Change: 0.3338
Gene F58G1.4, Affy_ID 177978_at
  Fold Change: 0.2272
Gene F59B2.5, Affy_ID 187071_at
  Fold Change: 0.4863
Gene H02I12.6, Affy_ID 172891_x_at
  Fold Change: 0.4113
Gene H12C20.3, Affy_ID 192782_at
  Fold Change: 0.1769
Gene H12D21.1, Affy_ID 172431_x_at
  Fold Change: 0.176
Gene H36L18.2, Affy_ID 179787_at
  Fold Change: 0.4486
Gene K02C4.2, Affy_ID 178299_at
  Fold Change: 0.2893
Gene K02D7.1, Affy_ID 189003_s_at
  Fold Change: 0.4157
Gene K03H1.10, Affy_ID 179875_at
  Fold Change: 0.3898
Gene K03H6.2, Affy_ID 183309_at
  Fold Change: 0.3456
Gene K05F1.2, Affy_ID 172815_x_at
  Fold Change: 0.2488
Gene K05F1.7, Affy_ID 172904_x_at
  Fold Change: 0.1812
Gene K06C4.12, Affy_ID 172685_x_at
  Fold Change: 0.3916
Gene K07E8.3, Affy_ID 180256_at
  Fold Change: 0.04574
Gene K07F5.2, Affy_ID 172852_x_at
  Fold Change: 0.1696
Gene K07F5.3, Affy_ID 172907_x_at
  Fold Change: 0.1824
Gene K07F5.5, Affy_ID 172245_x_at
  Fold Change: 0.3189
Gene K08F4.8, Affy_ID 172934_x_at
  Fold Change: 0.1666
Gene K08F8.4, Affy_ID 193649_s_at
  Fold Change: 0.4028
Gene K10F12.4, Affy_ID 185815_at
  Fold Change: 0.3079
Gene M01D7.5, Affy_ID 173242_s_at
  Fold Change: 0.2324
Gene M05D6.7, Affy_ID 193914_at
  Fold Change: 0.3025
Gene M6.1, Affy_ID 193073_at
  Fold Change: 0.2608
Gene M18.1, Affy_ID 173632_s_at
  Fold Change: 0.1786
Gene M163.1, Affy_ID 177298_at
  Fold Change: 0.4161
Gene R01E6.3, Affy_ID 189628_at
  Fold Change: 0.3449
Gene R03E9.1, Affy_ID 193723_s_at
  Fold Change: 0.1079
Gene R04B5.9, Affy_ID 191440_at
  Fold Change: 0.2481
Gene R05F9.3, Affy_ID 172725_x_at
  Fold Change: 0.3857
Gene R05F9.8, Affy_ID 172724_x_at
  Fold Change: 0.1853
Gene R05G6.10, Affy_ID 192058_at
  Fold Change: 0.3689
Gene R07B1.3, Affy_ID 190822_s_at
  Fold Change: 0.3753
Gene R12C12.1, Affy_ID 190616_at
  Fold Change: 0.3455
Gene R12E2.9, Affy_ID 180698_s_at
  Fold Change: 0.2329
Gene R52.3, Affy_ID 177369_at
  Fold Change: 0.433
Gene T01C3.4, Affy_ID 188106_at
  Fold Change: 0.01178
Gene T01D3.6, Affy_ID 194060_s_at
  Fold Change: 0.3484
Gene T02B11.3, Affy_ID 174051_s_at
  Fold Change: 0.4315
Gene T03D8.2, Affy_ID 190280_at
  Fold Change: 0.4443
Gene T07C4.4, Affy_ID 178149_s_at
  Fold Change: 0.4269
Gene T07G12.5, Affy_ID 188496_s_at
  Fold Change: 0.1018
Gene T08B1.6, Affy_ID 192296_at
  Fold Change: 0.1305
Gene T08B2.12, Affy_ID 184685_s_at
  Fold Change: 0.1145
Gene T09F5.9, Affy_ID 188947_at
  Fold Change: 0.2413
Gene T15B7.9, Affy_ID 182858_at
  Fold Change: 0.3683
Gene T19H5.4, Affy_ID 186755_s_at
  Fold Change: 0.3412
Gene T20B3.2, Affy_ID 188278_s_at
  Fold Change: 0.3943
Gene T20D4.11, Affy_ID 184438_at
  Fold Change: 0.05764
Gene T20G5.7, Affy_ID 172218_x_at
  Fold Change: 0.3082
Gene T22H2.6, Affy_ID 180962_s_at
  Fold Change: 0.3753
